Earlier results in patent US20240173256A1, “HDL MIMICKING TARGETED DRUG DELIVERY SYSTEM FOR THE TREATMENT OF SOLID TUMORS” (University of North Texas Health Science Center, priority 2022, published 2024).
Where two headings read alike, the source gives them in different places.

Experiments:
[1] = rodents
[2] = patients

Compound: CCCCC(=O)OCC(=O)[C@]1(O)Cc2c(O)c3c(c(O)c2[C@@H](O[C@H]2C[C@H](NCc4ccccc4)[C@H](O)[C@H](C)O2)C1)C(=O)c1c(OC)cccc1C3=O [AD 198, N-Benzyladriamycin-14-valerate]
- Cardiotoxicity [1]: no significant cardiotoxicity

Compound: COc1cccc2c1C(=O)c1c(O)c3c(c(O)c1C2=O)C[C@@](O)(C(=O)CO)C[C@@H]3O[C@H]1C[C@H](N)[C@H](O)[C@H](C)O1 [doxorubicin]
- Incidence of congestive heart failure ([2]; 400 mg/m^2): 4.7%
- Incidence of congestive heart failure ([2]; 550 mg/m^2): 26%
- Incidence of congestive heart failure ([2]; 700 mg/m^2): 48%
- Cardiotoxicity [1]: ventricular damage proportionate to dosage
